Laboratory results from patent US20030022909A1, “Use of methylnaltrexone to treat immune suppression” (University of Chicago, priority 2001, published 2003).
Where two headings read alike, the source gives them in different places.

What was measured:
[1] = system: blood lymphocyte responses; conditions: cited from earlier work
natural killer cells = assay: Animal study: number of natural killer cells in mice after treatment; type: in vivo; conditions: ten mice per group
[2] = cited from earlier work
[3] = white crystalline powder as provided; cited from earlier work
[4] = system: immune system effects of systemic morphine; conditions: rats, cited from earlier work
[5] = microinjection into the third ventricle

## CN1CC[C@]23c4c5ccc(O)c4O[C@H]2[C@@H](O)C=C[C@H]3[C@H]1C5 [morphine]
[1]; [5]
  analgesic responses: maximal analgesic responses were present
  inhibition of blood lymphocyte responses: 70%
Natural killer cells; Group 2: placebo and morphine
  number of natural killer cells present after treatment compared to Group 1 (control): significant decrease in the number of natural killer cells

## C[N+]1(C)CC[C@]23c4c5ccc(O)c4O[C@H]2[C@@H](O)C=C[C@H]3[C@@H]1C5 [N-methylmorphine]
[1]; [5]
  analgesic responses: maximal analgesic responses were present
  inhibition of blood lymphocyte responses: 70%
  plasma corticosterone concentration: significantly elevated
[1]; systemic administration
  effect on lymphocyte proliferation, plasma corticosterone concentrations or analgesic responses: did not effect

## C[N@+]1(CC2CC2)CC[C@]23c4c5ccc(O)c4O[C@H]2C(=O)CC[C@@]3(O)[C@H]1C5 [methylnaltrexone, N-cyclopropylmethylnoroxymorphine-methobromide]
[2]; intravenous 0.45 mg/kg, volunteers
  overt side effects: not associated with any overt side effects
[2]; intravenous compound
  half-life: less than two
[3]
  solubility in water: freely soluble in water
Natural killer cells; Group 3: methylnaltrexone and morphine
  number of natural killer cells present after treatment compared to Group 1 (control): comparable number of natural killer cells to Group 1
[4]; administered intracerebroventricularly
  antagonism of immune system effects of systemic morphine injection: antagonize most of the immune system effects
[4]; administered subcutaneously
  antagonism of immune system effects of systemic morphine injection: failed to do so
